Legend:
GLP-1R = GLP-1R (Homo sapiens, UniProt P43220); assay: GLP-1R activation: cAMP increase in CHO cells stably expressing GLP-1R; type: cell-based; settings: cAMP increase, CHO cells stably expressing GLP-1R, 10 point dose response, 30 minutes incubation; read-out: EC50
[1] = Microsomal stability, human liver microsomes (predicted hepatic clearance); settings: predicted from in vitro microsomal stability data

Sequence of GLP-1R (P43220 24-463): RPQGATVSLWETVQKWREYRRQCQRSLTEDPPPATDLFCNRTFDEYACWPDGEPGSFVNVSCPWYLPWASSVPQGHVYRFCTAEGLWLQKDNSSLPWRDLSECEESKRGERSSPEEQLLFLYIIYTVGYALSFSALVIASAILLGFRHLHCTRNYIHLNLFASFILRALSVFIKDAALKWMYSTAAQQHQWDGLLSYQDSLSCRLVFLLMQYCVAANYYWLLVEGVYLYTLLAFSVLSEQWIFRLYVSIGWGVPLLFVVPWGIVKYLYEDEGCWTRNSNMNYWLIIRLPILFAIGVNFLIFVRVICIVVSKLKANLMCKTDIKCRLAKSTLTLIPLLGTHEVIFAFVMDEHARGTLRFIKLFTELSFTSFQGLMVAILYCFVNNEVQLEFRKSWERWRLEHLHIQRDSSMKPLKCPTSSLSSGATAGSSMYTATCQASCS

EC50 (GLP-1R) [nM] | Predicted Hepatic Clearance (Pred. Cl.) [1] [mL/min/kg] | SMILES
8.79 | <1.83 | COCCn1c(Cc2c(F)cc(-c3cccc(OCc4ccc(C#N)cc4F)n3)cc2F)nc2ccc(C(=O)O)cc21 [Example 39, 2-(4-(6-((4-cyano-2-fluorobenzyl)oxy)pyridin-2-yl)-2,6-difluorobenzyl)-1-(2-methoxyethyl)-1H-benzo[d]imidazole-carboxylic acid]
456 | <1.83 | COCCn1c(Cc2ccc(-c3cccc(OCc4ccc(C#N)cc4F)n3)cc2OC(F)(F)F)nc2ccc(C(=O)O)cc21 [Example 40, 2-(4-(6-((4-cyano-2-fluorobenzyl)oxy)pyridin-2-yl)-2-(trifluoromethoxy)benzyl)-1-(2-methoxyethyl)-1H-benzo[d]imidazole-6-carboxylic acid]
1460 | 6 | COCCn1c(C2CCOc3cc(-c4cccc(OCc5ccc(C#N)cc5F)n4)ccc32)nc2ccc(C(=O)O)cc21 (stereo not drawn) [Example 41, 2-(7-(6-((4-cyano-2-fluorobenzyl)oxy)pyridin-2-yl)chroman-4-yl)-1-(2-methoxyethyl)-1H-benzo[d]imidazole-carboxylic acid]
38.2 | 3.83 | COCCn1c(Cc2ccc(-c3cccc(OCc4ccc(C#N)cc4F)n3)cc2OC(F)F)nc2ccc(C(=O)O)cc21 [Example 42, 2-(4-(6-((4-cyano-2-fluorobenzyl)oxy)pyridin-2-yl)-2-(difluoromethoxy)benzyl)-1-(2-methoxyethyl)-1H-benzo[d]imidazole-6-carboxylic acid]
163 | 5.83 | COCCn1c(Cc2ccc(-c3cccc(OCc4ccc(C#N)cc4F)n3)nc2)nc2ccc(C(=O)O)cc21 [Example 43, 2-{[6-[6-[(4-cyano-2-fluoro-phenyl)methoxy]-2-pyridyl]-3-pyridyl]methyl}-3-(2-methoxyethyl)benzimidazole-5-carboxylic acid]
212 | 3 | COCCn1c(Cc2cnc(-c3cccc(OCc4ccc(C#N)cc4F)n3)nc2)nc2ccc(C(=O)O)cc21 [Example 44, 2-((2-(6-((4-cyano-2-fluorobenzyl)oxy)pyridin-2-yl)pyrimidin-5-yl)methyl)-1-(2-methoxyethyl)-1H-benzo[d]imidazole-6-carboxylic acid]
36 | 3.83 | COCCn1c(Cc2ccc(-c3cccc(OCc4ccc(C#N)cc4F)n3)c(F)c2F)nc2ccc(C(=O)O)cc21 [Example 45, 2-(4-(6-((4-cyano-2-fluorobenzyl)oxy)pyridin-2-yl)-2,3-difluorobenzyl)-1-(2-methoxyethyl)-1H-benzo[d]imidazole-6-carboxylic acid]
19 | <1.83 | CC1(Cn2c(Cc3ccc(-c4cccc(OCc5ccc(C#N)cc5F)n4)cc3F)nc3ccc(C(=O)NS(=O)(=O)C4CC4)cc32)CC1 [Example 50, 2-(4-(6-((4-Cyano-2-fluorobenzyl)oxy)pyridin-2-yl)-2-fluorobenzyl)-N-(cyclopropylsulfonyl)-1-((1-methylcyclopropyl)methyl)-1H-benzo[d]imidazole-6-carboxamide]
63 | <1.83 | CC(C)(CF)Cn1c(Cc2ccc(-c3cccc(OCc4ccc(C#N)cc4F)n3)cc2F)nc2ccc(C(=O)NS(=O)(=O)C3CC3)cc21 [Example 51, 2-(4-(6-((4-cyano-2-fluorobenzyl)oxy)pyridin-2-yl)-2-fluorobenzyl)-N-(cyclopropylsulfonyl)-1-(3-fluoro-2,2-dimethylpropyl)-1H-benzo[d]imidazole-6-carboxamide]
56 | <1.83 | CC(C)(Cn1c(Cc2ccc(-c3cccc(OCc4ccc(C#N)cc4F)n3)cc2F)nc2ccc(C(=O)NS(=O)(=O)C3CC3)cc21)C(F)F [Example 52, 2-(4-(6-((4-cyano-2-fluorobenzyl)oxy)pyridin-2-yl)-2-fluorobenzyl)-N-(cyclopropylsulfonyl)-1-(3,3-difluoro-2,2-dimethylpropyl)-1H-benzo[d]imidazole-6-carboxamide]
1010 | 9 | COCCn1c(Cc2ccc(-c3cccc(OCc4ccc(C#N)cc4F)n3)c(C)c2)nc2ccc(C(=O)NS(=O)(=O)C3CC3)cc21 [Example 53, 2-(4-(6-((4-cyano-2-fluorobenzyl)oxy)pyridin-2-yl)-3-methylbenzyl)-N-(cyclopropylsulfonyl)-1-(2-methoxyethyl)-1H-benzo[d]imidazole-6-carboxamide]
806 | 3.83 | COCCn1c(Cc2ccc(-c3cccc(OCc4ccc(C#N)cc4F)n3)cn2)nc2ccc(C(=O)NS(=O)(=O)C3CC3)cc21 [Example 54, 2-((6-((4-cyano-2-fluorobenzyl)oxy)-[2,3′-bipyridin]-6′-yl)methyl)-N-(cyclopropylsulfonyl)-1-(2-methoxyethyl)-1H-benzo[d]imidazole-6-carboxamide]
3.4 | 4.33 | N#CCC1(Cn2c(Cc3ccc(-c4cccc(OCc5ccc(C#N)cc5F)n4)cc3F)nc3ccc(C(=O)NS(=O)(=O)C4CC4)cc32)CC1 [Example 55, 2-(4-(6-((4-cyano-2-fluorobenzyl)oxy)pyridin-2-yl)-2-fluorobenzyl)-1-((1-(cyanomethyl)cyclopropyl)methyl)-N-(cyclopropylsulfonyl)-1H-benzo[d]imidazole-6-carboxamide]
6.7 | <1.83 | N#Cc1ccc(COc2cccc(-c3ccc(Cc4nc5ccc(C(=O)NS(=O)(=O)C6CC6)cc5n4CC4(CF)CC4)c(F)c3)n2)c(F)c1 [Example 57, 2-(4-(6-((4-cyano-2-fluorobenzyl)oxy)pyridin-2-yl)-2-fluorobenzyl)-N-(cyclopropylsulfonyl)-1-((1-(fluoromethyl)cyclopropyl)methyl)-1H-benzo[d]imidazole-6-carboxamide]
5.6 | <1.83 | COCCn1c(Cc2ccc(-c3cccc(OCc4ccc(C#N)cc4F)n3)cc2C)nc2ccc(C(=O)O)cc21 [Example 59, 2-(4-(6-((4-cyano-2-fluorobenzyl)oxy)pyridin-2-yl)-2-methylbenzyl)-1-(2-methoxyethyl)-1H-benzo[d]imidazole-6-carboxylic acid]
30 | <1.83 | COCCn1c(Cc2ncc(-c3cccc(OCc4ccc(C#N)cc4F)n3)cc2F)nc2ccc(C(=O)O)cc21 [Example 60, 2-{[5-[6-[(4-cyano-2-fluoro-phenyl)methoxy]-2-pyridyl]-3-fluoro-2-pyridyl]methyl}-3-(2-methoxyethyl)benzimidazole-5-carboxylic acid]
18 | <1.83 | COCCn1c(Cn2ccc(-c3cccc(OCc4ccc(C#N)cc4F)n3)cc2=O)nc2ccc(C(=O)O)cc21 [Example 61, 2-((6-((4-cyano-2-fluorobenzyl)oxy)-2′-oxo-[2,4′-bipyridin]-1′(2′H)-yl)methyl)-1-(2-methoxyethyl)-1H-benzo[d]imidazole-6-carboxylic acid]
1430 | 6.7 | COCCn1c(Cc2ccc(-c3nc(OCc4ccc(C#N)cc4F)ns3)cc2F)nc2ccc(C(=O)O)cc21 [Example 62, 2-(4-(3-((4-cyano-2-fluorobenzyl)oxy)-1,2,4-thiadiazol-5-yl)-2-fluorobenzyl)-1-(2-methoxyethyl)-1H-benzo[d]imidazole-6-carboxylic acid]
164 | <1.83 | COCCn1c(Cc2ccc(-c3nsc(OCc4ccc(C#N)cc4F)n3)cc2F)nc2ccc(C(=O)O)cc21 [Example 63, 2-{[4-[5-[(4-cyano-2-fluoro-phenyl)methoxy]-1,2,4-thiadiazol-3-yl]-2-fluoro-phenyl]methyl}-3-(2-methoxyethyl)benzimidazole-5-carboxylic acid]
67 | 3.5 | COCCn1c(Cc2ccc(-c3cccc(OCc4ccc(C#N)cc4F)n3)cc2N)nc2ccc(C(=O)O)cc21 [Example 64, 2-(2-amino-4-(6-((4-cyano-2-fluorobenzyl)oxy)pyridin-2-yl)benzyl)-1-(2-methoxyethyl)-1H-benzo[d]imidazole-6-carboxylic acid]
1230 | 7.17 | COCCn1c(Cc2ccc(-c3cccc(OCc4ccc(C#N)cc4F)n3)cc2NC(C)=O)nc2ccc(C(=O)O)cc21 [Example 65, 2-(2-Acetamido-4-(6-((4-cyano-2-fluorobenzyl)oxy)pyridin-2-yl)benzyl)-1-(2-methoxyethyl)-1H-benzo[d]imidazole-6-carboxylic acid]
1030 | 12.3 | COCCn1c(Cc2ccc(-c3cccc(OCc4ccc(C#N)cc4F)n3)cc2NS(C)(=O)=O)nc2ccc(C(=O)O)cc21 [Example 66, 2-(4-(6-((4-Cyano-2-fluorobenzyl)oxy)pyridin-2-yl)-2-(methylsulfonamido)benzyl)-1-(2-methoxyethyl)-1H-benzo[d]imidazole-6-carboxylic acid]
1.34 | <1.83 | COCCn1c(Cc2ccc(-c3cccc(OCc4ccc(C#N)cc4F)n3)cc2F)nc2ncc(C(=O)O)cc21 [Example 71, 2-(4-(6-((4-cyano-2-fluorobenzyl)oxy)pyridin-2-yl)-2-fluorobenzyl)-1-(2-methoxyethyl)-1H-imidazo[4,5-b]pyridine-6-carboxylic]
23.8 | 12.3 | COCCn1c(Cc2c(F)cc(-c3csnc3OCc3ccc(Cl)cc3F)cc2F)nc2ccc(C(=O)O)cc21 [Example 72, 2-(4-(3-((4-chloro-2-fluorobenzyl)oxy)isothiazol-4-yl)-2,6-difluorobenzyl)-1-(2-methoxyethyl)-1H-benzo[d]imidazole-6-carboxylic acid]
